Laboratory results as given in patent US20100292222A1, “CHEMICAL COMPOUNDS 751” (ASTRAZENECA AB, priority 2009, published 2010).

Biological target: T1, Androgen Receptor (AR) (Homo sapiens, UniProt P10275, T878A)
T1 construct: cell based immuno-fluorescence assay using the LNCaP prostate epithelial cell line; host or cells: LNCaP clone FGC prostate carcinoma cells
T1 sequence (P10275 1-920 T878A): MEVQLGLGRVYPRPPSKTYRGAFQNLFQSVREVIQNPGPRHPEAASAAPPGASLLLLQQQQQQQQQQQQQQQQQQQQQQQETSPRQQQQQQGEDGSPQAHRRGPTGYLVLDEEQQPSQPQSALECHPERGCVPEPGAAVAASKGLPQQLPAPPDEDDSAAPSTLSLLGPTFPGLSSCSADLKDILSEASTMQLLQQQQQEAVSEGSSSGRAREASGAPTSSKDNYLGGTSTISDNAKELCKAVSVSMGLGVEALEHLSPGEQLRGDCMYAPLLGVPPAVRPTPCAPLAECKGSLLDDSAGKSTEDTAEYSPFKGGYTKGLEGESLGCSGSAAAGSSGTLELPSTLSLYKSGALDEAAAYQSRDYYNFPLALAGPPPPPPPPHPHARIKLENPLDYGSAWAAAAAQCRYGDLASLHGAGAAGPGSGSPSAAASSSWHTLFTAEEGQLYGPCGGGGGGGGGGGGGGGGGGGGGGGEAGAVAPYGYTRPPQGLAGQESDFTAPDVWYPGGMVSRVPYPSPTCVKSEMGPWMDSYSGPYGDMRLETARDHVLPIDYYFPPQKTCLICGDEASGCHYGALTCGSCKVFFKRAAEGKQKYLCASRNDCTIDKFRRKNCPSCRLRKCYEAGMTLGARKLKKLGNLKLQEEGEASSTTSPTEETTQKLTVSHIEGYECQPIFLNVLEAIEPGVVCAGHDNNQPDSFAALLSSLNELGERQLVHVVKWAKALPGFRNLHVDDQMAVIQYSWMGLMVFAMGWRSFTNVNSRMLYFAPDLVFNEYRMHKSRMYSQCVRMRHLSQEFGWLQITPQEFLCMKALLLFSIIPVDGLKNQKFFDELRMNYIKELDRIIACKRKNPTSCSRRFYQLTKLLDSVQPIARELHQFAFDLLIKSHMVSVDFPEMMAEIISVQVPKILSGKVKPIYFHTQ
Assay: LNCaP Androgen Receptor Down-Regulation Cell Assay
Assay type: cell-based
Settings: LNCaP prostate carcinoma cell line; 20-22 hours incubation; immunofluorescence; 50% reduction of the AR signal
Experimental: The ability of compounds to reduce Androgen Receptor (AR) numbers was assessed in a cell based immuno-fluorescence assay using the LNCaP prostate epithelial cell line.
This immunofluorescence end point assay measures the ability of a test compound to down-regulate and reduce measured levels of the AR in the LNCaP prostate carcinoma cell line (LNCaP clone FGC (CRL-1740) obtained from the American Type Culture Collection (ATCC)).
LNCaP cells were cultured in Growth Medium (phenol red free Roswell Park Memorial Institute (RPMI) 1640 (Invitrogen Code no. 11835-063) containing 2 mM L-Glutamine (Invitrogen Code no. 25030-024) and 1% (v/v) Penicillin/Streptomycin (10000 units/ml Penicillin and 10000 μg/ml of Streptomycin utilising penicillin G (sodium salt) and streptomycin sulphate: prepared in normal saline, Invitrogen Code no. 15140122) and 10% (v/v) foetal bovine serum (FBS)) in a 5% CO2 air incubator at 37° C. Cells for assay were harvested from T175 stock flasks by washing once in PBS (phosphate buffered saline, pH 7.4) (Invitrogen Code no. 14190-094) and harvested using 5 mls of 1× Trypsin/ethylaminediaminetetraacetic acid (EDTA) (10× Trypsin-EDTA, 5.0 g/L Trypsin, 2.0 g/L of EDTA•4Na and 8.5 g/L of NaCl, without Phenol Red, Invitrogen Code no. 15400-054) diluted in PBS solution. A 5 ml volume of Growth Medium was added to each flask (as above except that 5% (v/v) charcoal stripped FBS (HyClone Code no. SH30068.03) was included instead of 10% (v/v) FBS). Cells were syringed at least twice using a sterile 18G×1.5″ (1.2×40 mm) broad gauge needle and cell density was measured using a haemocytometer. Cells were further diluted in Growth Medium plus 5% (v/v) charcoal stripped FBS and seeded at a density of 6.5×10^3 cells per well (in 90 ul) into transparent, black, tissue culture treated 96 well plates (Packard, No. 6005182).
Test data reported herein was generated using two different compounds preparation and dosing methods. In method (1) a 10 mM compound stock solution in 100% (v/v) DMSO was serially diluted in 4-fold steps in 100% (v/v) DMSO using a Thermo Scientific Matrix SerialMate. The diluted compounds were then further diluted 1 in 30 in assay media using a Thermo Scientific Matrix PlateMate and a 10 μl aliquot of this dilution was dosed to cells manually using a multi-channel pipette. In method (2) starting with a 10 mM compound stock solution, the Labcyte Echo 550 was used to generate a compound concentration response set diluted in 30 μl of assay media. The Echo 550 is a liquid handler that uses acoustic technology to perform direct microplate-to-microplate transfers of DMSO compound solutions. The system can be programmed to transfer volumes as low as […] in multiple increments between microplates and in so doing generates a serial dilution of compound which is then back-filled to normalise the DMSO is concentration across the dilution range. A 10 μl volume of diluted compound is then dosed to cells using a Thermo Scientific Matrix PlateMate.
Plates were incubated overnight at 37° C., 5% CO2. Wells were then dosed with compound prepared by one of the 2 methods above and further incubated for 20-22 hours at 37° C., 5% CO2. Plates were fixed by the addition of 20 μl of 10% (v/v) formaldehyde solution (in PBS) to each well (final formaldehyde conc.=1.67% (v/v)) and left at room temperature for 10 mins. This fixative solution was removed and cells were washed with 250 μl of PBS/0.05% (v/v) Tween 20 (PBST) using an automated plate washer. This process was then repeated twice more.
Immunostaining was performed at room temperature. Cells were permeabilised by the addition of 35 μl of PBS containing 0.5% Tween 20 and incubated for 1 hour at room temperature. Permeabilisation solution was removed and cells were washed with 250 μl of PBST using an automated plate washer. This process was then repeated twice more. […]

Structure (SMILES)	IC50 [nM]
CC(=O)N1CCN(CCOc2ccc(C3(O)CCN(c4ccc5nnc(C(F)(F)F)n5n4)CC3)cc2)C[C@@H]1C [Example 40, 4-(4-{2-[(3S)-4-acetyl-3-methylpiperazin-1-yl]ethoxy}phenyl)-1-[3-(trifluoromethyl) [1,2,4]triazolo[4,3-b]pyridazin-6-yl]piperidin-4-ol]	63
CN1CCN(CCOc2ccc(C3(O)CCN(c4ccc5nnc(C(F)(F)F)n5n4)CC3)cc2)CC1=O [Example 3, 4-[2-(4-[4-hydroxy-1-[3-(trifluoromethyl)[1,2,4]-triazolo[4,3-b]pyridazin-6-yl]piperidin-4-yl]phenoxy)ethyl]-1-methylpiperazin-2-one]	360
O=C(CO)N1CCN(CCOc2ccc(C3CCN(c4ccc5nnc(C(F)(F)F)n5n4)CC3)cc2)CC1 [Example 21, 2-oxo-2-{4-[2-(4-{1-[3-(trifluoromethyl)[1,2,4]triazolo[4,3-b]pyridazin-6-yl]piperidin-4-yl}phenoxy)ethyl]piperazin-1-yl]ethanol]	1800
COCCN1CCN(CCOc2ccc(C3CCN(c4ccc5nnc(C(F)(F)F)n5n4)CC3)cc2)CC1=O [Example 20, 1-(2-methoxyethyl)-4-[2-(4-{1-[3-(trifluoromethyl)[1,2,4]triazolo[4,3-b]pyridazin-6-yl]piperidin-4-yl}phenoxy)ethyl]piperazin-2-one]	570
CN1CCN(CCOc2ccc(C3CCN(c4ccc5nnc(C(F)(F)F)n5n4)CC3)cn2)CC1=O [Example 11, 1-methyl-4-{2-[(5-{1-[3-(trifluoromethyl)[1,2,4]triazolo[4,3-b]pyridazin-6-yl]piperidin-4-yl}pyridin-2-yl)oxy]ethyl}piperazin-2-one]	1600
CN1CCN(CCOc2ccc(C3CCN(c4ccc5nnc(C(F)(F)F)n5n4)CC3)cc2F)CC1=O [Example 13, 4-[2-(2-fluoro-4-{1-[3-(trifluoromethyl)[1,2,4]triazolo[4,3-b]pyridazin-6-yl]piperidin-4-yl}phenoxy)ethyl]-1-methylpiperazin-2-one]	310
CC(=O)N1CCN(CCCOc2ccc(N3CCN(c4ccc5nnc(C(F)(F)F)n5n4)CC3)cc2)CC1 [Example 1.1, 6-(4-{4-[3-(4-acetylpiperazin-1-yl)propoxy]phenyl}piperazin-1-yl)-3-(trifluoromethyl)[1,2,4]-triazolo[4,3-b]pyridazine]	1500
O=C1CN(CCCOc2ccc(C3CCN(c4ccc5nnc(C(F)(F)F)n5n4)CC3)cc2)CCN1C1CC1 [Example 10, 1-cyclopropyl-4-[3-(4-{1-[3-(trifluoromethyl)[1,2,4]triazolo[4,3-b]pyridazin-6-yl]piperidin-4-yl}phenoxy)propyl]piperazin-2-one]	410
CN1CCN(CCOc2ccc(N3CCN(c4ccc5nnc(C(F)(F)F)n5n4)CC3)cc2)CC1=O [Example 4, 1-methyl-4-[2-(4-{4-[3-(trifluoromethyl)[1,2,4]triazolo[4,3-b]pyridazin-6-yl]piperazin-1-yl}phenoxy)ethyl]piperazin-2-one]	5700
CCN1CCN(CCCOc2ccc(C3CCN(c4ccc5nnc(C(F)(F)F)n5n4)CC3)cc2)CC1=O [Example 15, 1-ethyl-4-[3-(4-{1-[3-(trifluoromethyl)[1,2,4]triazolo[4,3-b]pyridazin-6-yl]piperidin-4-yl}phenoxy)propyl]piperazin-2-one]	240
CN1CCN(CCOc2ccc(N3CCN(c4ccc5nnc(C(F)(F)F)n5n4)CC3)cc2)C(=O)C1 [Example 7, 4-methyl-1-[2-(4-{4-[3-(trifluoromethyl)[1,2,4]-triazolo[4,3-b]pyridazin-6-yl]piperazin-1-yl}phenoxy)ethyl]piperazin-2-one]	6500
CN1CCN(CCOc2ccc(C3(O)CCN(c4ccc5nnc(C(F)(F)F)n5n4)CC3)c(F)c2)CC1=O [Example 36, 4-[2-(3-fluoro-4-[4-hydroxy-1-[3-(trifluoromethyl)[1,2,4]triazolo[4,3-b]pyridazin-6-yl]piperidin-4-yl]phenoxy)ethyl]-1-methylpiperazin-2-one]	73
